Data as given in patent US7977322B2 (Vertex Pharmaceuticals Incorporated, priority 2004, dated 2011).

Biological target: T1, ΔF508-CFTR (Homo sapiens, UniProt P13569, DEL508-508)
T1 construct: expressed in transfected cells
Assay: Membrane potential optical (FRET/VIPR) assay, identification of correction compounds
Assay type: cell-based
Conditions: Table 3, assay not given; for Emax: read-out: % Activity / % Efficacy (relative efficacy)
In short: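 NIH3T3 mouse fibroblasts stably expressing ΔF508-CFTR were exposed to compound for 16 h at 37° C in serum-free medium, then loaded with DiSBAC2(3)/CC2-DMPE. After addition of 10 μM forskolin plus 20 μM genistein in Cl⁻-free gluconate bath (pH 7.4), depolarization from Cl⁻ efflux was read by FRET (VIPR II).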

T1 sequence (P13569 with tags, fused parts or gaps DEL508-508): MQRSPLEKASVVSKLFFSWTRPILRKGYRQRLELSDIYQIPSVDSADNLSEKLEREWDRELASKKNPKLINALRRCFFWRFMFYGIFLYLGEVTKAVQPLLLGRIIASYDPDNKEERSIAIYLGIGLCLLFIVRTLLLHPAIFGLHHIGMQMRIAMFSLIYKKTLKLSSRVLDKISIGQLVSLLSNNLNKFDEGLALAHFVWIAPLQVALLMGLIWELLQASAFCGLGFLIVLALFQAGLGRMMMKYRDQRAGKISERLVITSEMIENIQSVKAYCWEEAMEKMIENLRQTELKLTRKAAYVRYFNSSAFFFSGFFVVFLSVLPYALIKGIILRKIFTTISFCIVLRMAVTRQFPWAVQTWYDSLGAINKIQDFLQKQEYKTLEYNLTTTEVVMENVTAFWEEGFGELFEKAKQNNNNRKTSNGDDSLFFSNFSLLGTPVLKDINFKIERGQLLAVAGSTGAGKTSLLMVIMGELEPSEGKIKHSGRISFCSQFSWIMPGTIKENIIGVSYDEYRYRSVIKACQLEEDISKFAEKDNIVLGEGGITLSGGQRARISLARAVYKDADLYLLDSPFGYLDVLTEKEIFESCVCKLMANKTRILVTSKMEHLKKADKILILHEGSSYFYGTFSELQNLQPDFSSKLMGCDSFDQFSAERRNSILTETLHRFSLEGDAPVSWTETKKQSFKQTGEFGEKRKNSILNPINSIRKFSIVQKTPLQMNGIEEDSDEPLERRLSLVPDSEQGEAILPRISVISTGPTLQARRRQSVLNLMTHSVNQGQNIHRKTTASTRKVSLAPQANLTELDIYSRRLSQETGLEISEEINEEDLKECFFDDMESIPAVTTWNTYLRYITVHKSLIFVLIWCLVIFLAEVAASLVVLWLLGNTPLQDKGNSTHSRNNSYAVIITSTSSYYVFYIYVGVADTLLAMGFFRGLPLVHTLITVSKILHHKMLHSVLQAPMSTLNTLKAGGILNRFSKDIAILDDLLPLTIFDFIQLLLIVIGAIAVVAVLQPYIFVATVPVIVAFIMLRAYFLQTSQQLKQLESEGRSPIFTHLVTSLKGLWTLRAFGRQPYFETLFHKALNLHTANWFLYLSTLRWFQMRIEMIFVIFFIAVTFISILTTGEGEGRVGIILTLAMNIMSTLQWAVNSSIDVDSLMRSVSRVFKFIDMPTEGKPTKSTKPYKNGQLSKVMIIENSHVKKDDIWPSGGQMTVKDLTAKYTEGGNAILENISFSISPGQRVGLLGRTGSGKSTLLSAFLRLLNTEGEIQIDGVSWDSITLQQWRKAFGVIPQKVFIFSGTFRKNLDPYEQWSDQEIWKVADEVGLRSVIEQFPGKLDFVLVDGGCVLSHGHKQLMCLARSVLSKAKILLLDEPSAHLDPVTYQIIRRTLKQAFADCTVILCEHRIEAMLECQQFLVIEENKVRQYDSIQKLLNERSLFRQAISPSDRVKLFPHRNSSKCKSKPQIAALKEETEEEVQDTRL

Row | Structure (SMILES) | % Activity / % Efficacy (relative efficacy) | EC50 | Emax
1 | O=C(Nc1ncc(C(c2ccccc2Cl)n2ccnc2)s1)C1(c2ccc3c(c2)OCO3)CC1 (stereo not drawn) [Example 241] | ++ (“++” means between 25% to 100%) | < 10 µM | –
2 | CC(=O)c1sc(NC(=O)C2(c3ccc4c(c3)OCO4)CC2)nc1C [Example 107] | +++ (“+++” means>100%) | < 10 µM | –
3 | COc1ccc(C2(C(=O)Nc3ncc(Cc4ccccc4C)s3)CC2)cc1 [Example 280] | +++ (“+++” means>100%) | < 10 µM | –
4 | COc1ccccc1Cc1cnc(NC(=O)C2(c3ccc(SC)cc3)CC2)s1 [Example 173] | +++ (“+++” means>100%) | < 10 µM | –
5 | Cc1ccccc1C(N[C@@H](CO)C(C)C)c1cnc(NC(=O)C2(c3ccc4c(c3)OCO4)CC2)s1 (stereo partly drawn) [Example 479] | – | < 10 µM | > 100%
6 | COc1cccc(-c2csc(NC(=O)C3(c4ccc5c(c4)OCO5)CC3)n2)c1 [Example 114] | +++ (“+++” means>100%) | < 10 µM | –
7 | O=C1CCCc2nc(NC(=O)C3(c4ccc5c(c4)OCO5)CC3)sc21 [Example 190] | + (“+” means<25%) | 10 to 25 µM | –
8 | COc1ccccc1Cc1cnc(NC(=O)C2(c3ccc(F)c(F)c3)CC2)s1 [Example 198] | +++ (“+++” means>100%) | < 10 µM | –
9 | CCCC[C@H](CO)NC(c1cnc(NC(=O)C2(c3ccc4c(c3)OCO4)CC2)s1)c1ccccc1Cl (stereo partly drawn) [Example 497] | – | < 10 µM | > 100%
10 | COc1ccccc1CCc1cnc(NC(=O)C2(c3ccc4c(c3)OCO4)CC2)s1 [Example 197] | +++ (“+++” means>100%) | < 10 µM | –
11 | O=C(Nc1ncc(Cc2ccccc2Cl)s1)C1(c2ccc(F)c(F)c2)CC1 [Example 199] | +++ (“+++” means>100%) | < 10 µM | –
12 | Cc1ccccc1C(N[C@@H](CO)CC(C)C)c1cnc(NC(=O)C2(c3ccc4c(c3)OCO4)CC2)s1 (stereo partly drawn) [Example 477] | – | < 10 µM | > 100%
13 | COc1ccc(C2(C(=O)Nc3nc(-c4ccc(C)cc4)cs3)CC2)cc1 [Example 77] | +++ (“+++” means>100%) | < 10 µM | –
14 | CCN(C)CCOC(c1cnc(NC(=O)C2(c3ccc4c(c3)OCO4)CC2)s1)c1ccccc1Cl (stereo not drawn) [Example 276] | ++ (“++” means between 25% to 100%) | < 10 µM | –
15 | COc1ccc(Cc2cnc(NC(=O)C3(c4ccc(OC)cc4)CC3)s2)cc1 [Example 180] | +++ (“+++” means>100%) | < 10 µM | –
16 | O=C1NOC[C@@H]1NC(c1cnc(NC(=O)C2(c3ccc4c(c3)OCO4)CC2)s1)c1ccccc1Cl (stereo partly drawn) [Example 407] | – | 10 to 25 µM | 25 to 100%
17 | O=C(Nc1ncc(C(c2ccccc2Cl)N2CC[C@@H](O)C2)s1)C1(c2ccc(Cl)cc2)CC1 (stereo partly drawn) [Example 449] | – | < 10 µM | > 100%
18 | O=C(Nc1ncc(C(c2ccccc2Cl)N2CC[C@@H](O)C2)s1)C1(c2ccc(F)cc2)CC1 (stereo partly drawn) [Example 421] | – | 10 to 25 µM | > 100%
19 | CN(C)CC(=O)Nc1ccc(C2(C(=O)Nc3ncc(Cc4ccccc4Cl)s3)CC2)cc1 [Example 312] | – | < 10 µM | 25 to 100%
20 | COc1ccccc1C1(C(=O)Nc2ncc(C(c3ccccc3Cl)N3CC[C@@H](O)C3)s2)CC1 (stereo partly drawn) [Example 443] | – | < 10 µM | 25 to 100%
21 | COc1ccc(CC2(C(=O)Nc3ncc(Cc4ccccc4OC)s3)CC2)cc1 [Example 200] | +++ (“+++” means>100%) | < 10 µM | –

Row | Structure (SMILES) | % Activity / % Efficacy (relative efficacy) | EC50 | Emax
22 | CCCN(CCO)C(c1cnc(NC(=O)C2(c3ccc4c(c3)OCO4)CC2)s1)c1ccccc1Cl (stereo not drawn) [Example 426] | – | < 10 µM | 25 to 100%
23 | CC(C)(C)c1cc(NC(=O)C2(c3ccc4c(c3)OCO4)CC2)c(C(N)=O)s1 [Example 290] | – | < 10 µM | 25 to 100%
24 | CCC[C@@H](CO)NC(c1cnc(NC(=O)C2(c3ccc4c(c3)OCO4)CC2)s1)c1ccccc1Cl (stereo partly drawn) [Example 485] | – | < 10 µM | > 100%
25 | COC(=O)Cn1cc(Cc2ccccc2Cl)sc1=NC(=O)C1(c2ccc(OC)cc2)CC1 [Example 72] | ++ (“++” means between 25% to 100%) | 25 to 60 µM | –
26 | CCN(CC)C(c1cnc(NC(=O)C2(c3ccc4c(c3)OCO4)CC2)s1)c1ccccc1OC (stereo not drawn) [Example 365] | – | < 10 µM | > 100%
27 | COc1ccccc1Cc1cnc(NC(=O)C2(c3ccc(Cl)cc3)CC2)s1 [Example 32] | – | < 10 µM | > 100%
28 | C[C@@H](CO)NC(c1cnc(NC(=O)C2(c3ccc4c(c3)OCO4)CC2)s1)c1ccccc1Cl (stereo partly drawn) [Example 437] | – | < 10 µM | –
29 | O=C(c1cnc(NC(=O)C2(c3ccc4c(c3)OCO4)CC2)s1)c1ccccc1Cl [Example 136] | +++ (“+++” means>100%) | < 10 µM | –
30 | COc1ccccc1C(c1cnc(NC(=O)C2(c3ccc4c(c3)OCO4)CC2)s1)N(C)C (stereo not drawn) [Example 364] | – | 10 to 25 µM | > 100%
31 | COc1ccc(C2(C(=O)Nc3ncc(C(c4ccccc4Cl)N4CC[C@@H](O)C4)s3)CC2)cc1 (stereo partly drawn) [Example 420] | – | < 10 µM | > 100%
32 | COc1cccc(C2(C(=O)Nc3ncc(Cc4ccccc4Cl)s3)CC2)c1 [Example 66] | +++ (“+++” means>100%) | < 10 µM | –
33 | COc1ccccc1Cc1cnc(NC(=O)C2(c3ccccc3OC)CC2)s1 [Example 70] | ++ (“++” means between 25% to 100%) | < 10 µM | –
34 | CC(C)C[C@@H](CO)NC(c1cnc(NC(=O)C2(c3ccc4c(c3)OCO4)CC2)s1)c1ccccc1Cl (stereo partly drawn) [Example 495] | – | < 10 µM | 25 to 100%
35 | CCN(CC)C(Cc1ccccc1Cl)c1cnc(NC(=O)C2(c3ccc4c(c3)OCO4)CC2)s1 (stereo not drawn) [Example 459] | – | < 10 µM | > 100%
36 | COc1cccc(C(c2cnc(NC(=O)C3(c4ccc5c(c4)OCO5)CC3)s2)N(C)C)c1 (stereo not drawn) [Example 366] | – | 10 to 25 µM | > 100%
37 | O=C(Nc1nc(-c2ccc(Cl)cc2Cl)cs1)C1(c2ccc3c(c2)OCO3)CC1 [Example 126] | +++ (“+++” means>100%) | < 10 µM | –
38 | Cn1nc(-c2ccc(Cl)c(Cl)c2)cc1NC(=O)C1(c2ccc3c(c2)OCO3)CC1 [Example 287] | – | < 10 µM | > 100%
39 | CS(=O)(=O)Nc1cccc(C2(C(=O)Nc3ncc(Cc4ccccc4Cl)s3)CC2)c1 [Example 308] | – | < 10 µM | 25 to 100%
40 | O=C(Nc1ncc(C(NCC2CCCCC2)c2ccccc2Cl)s1)C1(c2ccc3c(c2)OCO3)CC1 (stereo not drawn) [Example 409] | – | < 10 µM | > 100%
41 | COc1ccc(C2(C(=O)Nc3ncc(Cc4c(F)cccc4OC)s3)CC2)cc1 [Example 193] | +++ (“+++” means>100%) | < 10 µM | –

Results, then the compound that gave them:

Row | % Activity / % Efficacy (relative efficacy) | EC50 | Emax | Structure (SMILES)
42 | +++ (“+++” means>100%) | < 10 µM | – | COc1cccnc1Cc1cnc(NC(=O)C2(c3ccc4c(c3)OCO4)CC2)s1 [Example 266]
43 | – | 10 to 25 µM | > 100% | COC[C@@H]1CCCN1C(c1ccccc1)c1cnc(NC(=O)C2(c3ccc4c(c3)OCO4)CC2)s1 (stereo partly drawn) [Example 347]
44 | – | 10 to 25 µM | > 100% | CCC(c1cnc(NC(=O)C2(c3ccc4c(c3)OCO4)CC2)s1)N1CCC[C@@H]1COC (stereo partly drawn) [Example 401]
45 | – | < 10 µM | > 100% | O=C(Nc1ncc(C(c2ccccc2Cl)N2CCC(O)C2)s1)C1(c2ccc3c(c2)OCO3)CC1 (stereo not drawn) [Example 311]
46 | – | 10 to 25 µM | > 100% | O=C(Nc1ncc(C(c2ccccc2)N2CCC(O)CC2)s1)C1(c2ccc3c(c2)OCO3)CC1 (stereo not drawn) [Example 351]
47 | – | < 10 µM | > 100% | O=C(Nc1ncc(C(c2ccccc2C(F)(F)F)N2CC[C@@H](O)C2)s1)C1(c2ccc3c(c2)OCO3)CC1 (stereo partly drawn) [Example 464]
48 | +++ (“+++” means>100%) | < 10 µM | – | COc1ccc(F)cc1Cc1cnc(NC(=O)C2(c3ccc4c(c3)OCO4)CC2)s1 [Example 182]
49 | +++ (“+++” means>100%) | < 10 µM | – | CCOC(c1cnc(NC(=O)C2(c3ccc4c(c3)OCO4)CC2)s1)c1ccccc1Cl (stereo not drawn) [Example 240]
50 | – | < 10 µM | > 100% | CN(C)C(Cc1ccccc1Cl)c1cnc(NC(=O)C2(c3ccc4c(c3)OCO4)CC2)s1 (stereo not drawn) [Example 457]
51 | – | 10 to 25 µM | 25 to 100% | CCC(c1cnc(NC(=O)C2(c3ccc4c(c3)OCO4)CC2)s1)N1CCOCC1 (stereo not drawn) [Example 398]
52 | – | < 10 µM | > 100% | CCC(CO)NC(c1cnc(NC(=O)C2(c3ccc4c(c3)OCO4)CC2)s1)c1ccccc1Cl (stereo not drawn) [Example 486]
53 | – | 10 to 25 µM | > 100% | CC(C)(C)C(c1cnc(NC(=O)C2(c3ccc4c(c3)OCO4)CC2)s1)N1CCCCC1 (stereo not drawn) [Example 383]
54 | ++ (“++” means between 25% to 100%) | < 10 µM | – | CCCc1nc(NC(=O)C2(c3ccc4c(c3)OCO4)CC2)sc1C(=O)O [Example 191]
55 | +++ (“+++” means>100%) | < 10 µM | – | Cc1cnc(NC(=O)C2(c3ccc4c(c3)OCO4)CC2)s1 [Example 85]
56 | – | < 10 µM | > 100% | NC(=O)C1CCCN(C(c2cnc(NC(=O)C3(c4ccc5c(c4)OCO5)CC3)s2)c2ccccc2Cl)C1 (stereo not drawn) [Example 418]
57 | – | < 10 µM | > 100% | COCC1CCCN1C(c1ccccc1)c1cnc(NC(=O)C2(c3ccc4c(c3)OCO4)CC2)s1 (stereo not drawn) [Example 355]
58 | – | < 10 µM | > 100% | CCNC(c1cnc(NC(=O)C2(c3ccc4c(c3)OCO4)CC2)s1)c1ccccc1Cl (stereo not drawn) [Example 432]
59 | – | 10 to 25 µM | > 100% | CC(C)(C)C(c1cnc(NC(=O)C2(c3ccc4c(c3)OCO4)CC2)s1)N1CC[C@@H](O)C1 (stereo partly drawn) [Example 390]
